Literature values, collected in US8629128B2, “Vitamin formulation” (priority 2005, dated 2014).
Values belong to the molecule of their own block, whether it stands above or below them.

Experiments:
[1] = tested on: normal and malignant keratinocytes; settings: normal and malignant keratinocytes in culture
[2] = oxidizing agents and sunlight
[3] = tested on: calcium metabolism

SMILES: C=C1/C(=C\C=C2/CCC[C@]3(C)C([C@H](C)/C=C/[C@@H](O)C4CC4)CC[C@@H]23)C[C@@H](O)C[C@@H]1O (stereo partly drawn) [Calcipotriene, (5Z,7E,22E,24S)-24-cyclopropyl-9,10-secochola-5,7,10(19), 22 tetraene-1α,3β,24-triol]
induction of differentiation of keratinocytes [1]: induces the differentiation
inhibition of proliferation of keratinocytes [1]: inhibits proliferation

SMILES: CC1=C(/C=C/C(C)=C/C=C/C(C)=C/C(=O)O)C(C)(C)CCC1 [Tretinoin, (all-E)-3,7-dimethyl-9-(2,6,6-trimethyl-1-cyclohexen-1-yl)-2,4,6,8-nonatetraenoic acid]
stability of tretinoin [2]: unstable in the presence of oxidizing agents and sunlight

effect on calcium metabolism [3]: potent effect on calcium metabolism
SMILES: C=C1/C(=C\C=C2/CCC[C@]3(C)[C@@H]([C@H](C)CCCC(C)(C)O)CC[C@@H]23)C[C@@H](O)C[C@@H]1O [calcitriol, 1,25-dihydroxy Vitamin D3]
